We go through two molecules from patent US6025491A, “Water soluble onium salt of taxo-diterpenoid” (The Scripps Research Institute, priority 1998, dated 2000).

The procedure of series [1]:
The solubility and partition coefficient data for 2 and taxol were determined using an HPLC method.
Solubility was found by forming a solution in water with the aid of sonication for five minutes, centrifugation of the samples, and injection of the supernatant. The values reported were normalized using calibration curves constructed for both compounds by preparing known concentrations in the range 1×10^-6 to 1×10^-3 M in methylene chloride and subjecting to HPLC analysis under the same conditions. […] Partition coefficients were determined by dissolving the compound in the organic phase, shaking the resulting solution with water for ten minutes, and analyzing each phase by HPLC as above.

The nature of series [2]: stability measurements by HPLC (solid state and aqueous media). Type of series: physicochemical. Particulars: for stability duration: pH 6.0 to 7.3, 25° C. On the procedure:
(§1) Due to a difference in retention time using our standard HPLC conditions (see FIG. 1) and differing ultraviolet absorption maxima (1280 /1254 =1.6 for 2 and 0.3 for 1), the stability of 2 was easily assayed by HPLC (FIG. 1). […] In phosphate buffered saline (PBS) or ammonium acetate--phosphate buffer systems of pH 6.0 to 7.3, 2 is stable at 25° C. for over 21 days. Taxol-2'-MPT (2) is, however, unstable in 5% HCl (pH 1.1) and brine.
(§2) Under these conditions 20% of total is recovered. More particularly, Taxol-2'-MPT (2) was dissolved in the aqueous system with the aid of sonication for five minutes. Aliquots were then removed at the times shown and partitioned into methylene chloride to quench the reaction. Samples were then analyzed using a Waters Maxima HPLC instrument equipped with an autoinjector (3.9×300 mm C18 column equipped with a precolumn. The flow rate was 1.5 mL/minute. The eluent gradient A-B extended over 30 minutes. "A" was 80% 80 mM ammonium acetate, pH 6.0. "B" was 100% methanol. An ultraviolet diode array detector was employed. The ratio of compound 2 (Rf 16.2 min.) to taxol (compound 1, Rf 16.8 min.) remaining was determined from the relative areas of the peaks after normalization with previously determined calibration curves.

A short description of series [3]: kinetics of taxol release from taxol-2'-MPT in aqueous solutions. Type of series: physicochemical. Particulars: 25° C.; for taxol release: over 11 minutes. Here is the method:
as §2

The nature of series [4]: taxol release / breakdown of taxol-2'-MPT in plasma. Type of series: in vitro ADME, human. On the procedure:
as §1, §2

The nature of series [5]: self-assembly: optical density at 340 nm and transmission electron microscopy. Type of series: physicochemical. The source says:
Transmission electron microscopy (TEM) confirmed the presence of supramolecular structures in these solutions. […] It is likely that the long term stability of these solutions is due, at least in part, to stabilization provided by this structured environment.

Another series deals with tubulin. The series can be described thus: microtubule (tubulin) polymerization-depolymerization measurements. Type of series: biochemical. Particulars: for suppression of calcium chloride promoted depolymerization: 10^-6 M drug, 0.25 mM CaCl2, OD 340 nm; for suppression of calcium chloride promoted depolymerization / microtubule polymerization-depolymerization: tubulin 1.0 mg/mL; for microtubule polymerization-depolymerization: 10^-6 drug, 1.0 mM GTP, 0.25 mM CaCl2, 37° C. Here is the method:
Tubulin polymerization-depolymerization measurements are illustrate in FIG. 3. Negative controls are shown with triangles; positive taxol controls are shown with diamonds; and taxol-2'-MPT, i.e., compound 2 is shown with dots.
More particularly, measurement were performed in 96 well plates at 37° C. following the protocol of R. Merlock and W. Wrasidlo (Analytical Biochemistry 1993, in press). Calcium chloride addition is indicated by the arrow. In each case, 1.0 mM GTP was used to promote the initial polymerization of tubulin. Negative control employed tubulin (1.0 mg/mL) alone, CaCl2 (0.25 mM) added after 20 minutes. Positive taxol control employed tubulin (1.0 mg/mL) with taxol (10^-6 M) and CaCl2 (0.25 mM) added after 20 minutes. The experimental taxol-2'-MPTemployed tubulin (1.0 mg/mL) with taxol-2'-MPT (10^-6) and CaCl2 (0.25 mM) added after 20 minutes. Turbidity was measured as optical density at 340 nm using a microplate reader (Molecular Devices Thermomax).

Series [6] relates to A549 non-small cell lung adenocarcinoma xenograft. The series can be described thus: efficacy in lung tumor xenograft nude mouse model. Type of series: in vivo, nude mice (human lung carcinoma xenografts). Particulars: I.P. day 1, 3 and 7; taxol 18.0 mg/kg in Cremaphor/D5W; 2 at 23.9 mg/kg.
Method: The tumor model was generated from an ATCC A549 non-small cell lung adenocarcinoma cell line that was maintained under the standard cell proliferation conditions (37° C., 5% carbon dioxide in sterile air). Hemocytometer counted cells suspended in Hanks medium (Gibco, Grand Island N.Y.) were implanted S.C.
In another series the test system is serum protein. The series can be described thus: displacement of MPT group by serum protein, dialysis of protein:taxol intermediate. Type of series: in vitro ADME. Particulars: contacted with serum protein.
The next series deals with immunoglobulins. The series can be described thus: displacement of MPT group by immunoglobulins. Type of series: in vitro ADME. The source says: (§3) However, the release of taxol from taxol-2'-MPT can also be catalyzed by serum protein and by proteins having nucleophilic groups. […] Dialysis of the protein:taxol intermediate indicates a dissociation period of hours or days. Displacement of the MPT group by serum proteins seems to be specific for such serum proteins. […] The precise nature of the bonding between the protein and taxol has not been characterized. Scheme 2 illustrates alternative pathways for MPT release.

Another series relates to serum albumen. The series can be described thus: displacement of MPT group by serum albumen. Type of series: in vitro ADME.
From the text: as §3

The test system of another series is non-serum proteins. The series can be described thus: displacement of MPT group by non-serum proteins. Type of series: in vitro ADME. Particulars: tested non-serum proteins.
From the text: as §3

Series [7] concerns human leukemia.
Method: (§4) More particularly, cells were plated on 96 well plates with the following controls: no cells and toxic control (1×10^-3 M SDS). The drug was added to the first set of wells and diluted via standard dilution method from the stock. Plates were incubated at 37° C., 5% CO2 in sterile air in an humidified incubator for 72 hours. An aliquot of 50 μL of a solution of 2,3-bis(methoxy-4-nitro-5-sulfophenyl)-5-[(phenylamino) carbonyl]-1H-tetrazolium hydroxide (XTT), 1 mg mL^-1, in phosphate buffered saline (PBS, 100 mM) was added to the wells. In the presence of viable cells, this colorless clear media is enzymatically altered to give a pink coloration. The plates were read at 450 nm using a plate reader. Percentage cytotoxicity was calculated using the formula: % C=1-(OD toxin)(OD growth control)^-1 (100).
Series [8] relates to metastatic melanoma.
Method: as §4
The test system of series [9] is cervical carcinoma.
Method: as §4
For series [10] the following is noted: background statement; cited from earlier work.
The conditions of series [11]: formulated in Cremaphor (polyoxyethylated castor oil) and ethanol; cited from earlier work.
In series [12] the test system is human leukemia. The series can be described thus: cytotoxicity (XTT), human leukemia. Background: Tetrazolium assays rely on reduction of a dye to a coloured formazan, in cell work by metabolically active cells.
Method: as §4
Series [13] concerns cervical carcinoma. The series can be described thus: cytotoxicity (XTT), cervical carcinoma.
Method: as §4
Series [14] deals with metastatic melanoma. The series can be described thus: cytotoxicity (XTT), metastatic melanoma.
Method: as §4

Counter-ions that a name gives are not always drawn. Like-named read-outs stand apart in the source and are kept apart here.

For `CC(=O)O[C@H]1C(=O)[C@@]2(C)[C@H]([C@H](OC(=O)c3ccccc3)[C@]3(O)C[C@H](OC(=O)[C@H](Oc4cccc[n+]4C)[C@@H](NC(=O)c4ccccc4)c4ccccc4)C(C)=C1C3(C)C)[C@]1(OC(C)=O)CO[C@@H]1C[C@@H]2O` [taxol-2'-MPT, Taxol-2'-MPT (methylpyridinium tosylate)], in series [1], the “solubility in water compared with taxol” value was “significantly more soluble in water than the parent taxol”. The stability result is “unstable” in series [2] (5% HCl (pH 1.1)); “essentially completely stable” in [2] (aqueous media at physiological pH and ion strength); “unstable” in series [2] (brine). Besides, the stability duration result in series [2] (ammonium acetate--phosphate buffer systems) and in [2] (phosphate buffered saline (PBS)) was “over 21 days” each time. The “stability, onset of slow degradation” value in series [2] (in 1.5% saline), in series [2] (in 5% dextrose) and in series [2] (in water) was over 4 days each time. Also, the taxol release result in series [3] (5% dextrose), in [3] (pH 6.2 phosphate buffered saline) and in series [3] (sterile water) was “no taxol release is observed” each time. In series [3], the “stability in water and aqueous buffer solutions” value is “stable in water and aqueous buffer solutions”. Moreover, the “breakdown in human plasma” value in series [4] (incubated at 37° C. with human plasma) is “breaks down rapidly”. In addition, in series [4] (plasma, methylene chloride extraction, 25° C.), the “time to complete conversion of 2 into taxol” value is at most 10 min. Besides, in series [4] (sera), the “taxol discharge in sera” value is reported as “rapidly discharges taxol in sera”. The “critical concentration for exponential increase in optical density (critical aggregation concentration)” value in series [5] (OD 340 nm, buffered solutions) stood at 400 µM. Besides, the “diameter of fibrillar aggregates” value in [5] (TEM, fibrillar structure) is reported as “ca. 80 Å”. In addition, the “helical twist of fibrillar aggregates” value in [5] (TEM, fibrillar structure) is given as “about 7”. For the same molecule, the “length of fibrillar aggregates” value in [5] (TEM, fibrillar structure) is given as “up to 800 Å”. For the same molecule, the “diameter of spherical structures” value in series [5] (TEM, freshly sonicated solutions) is recorded as “about 50 Å”. Also, the “concentration above which haze and diffuse light scattering appear” value in series [5] (buffered solutions) is on record as “greater than 1×10^-3 M”. Further, the “appearance of water solutions” value in series [5] (water, all concentrations examined) was “optically clear”. For the same molecule, the “suppression of calcium chloride promoted depolymerization” value in the series with tubulin was “not by taxol-2'-MPT”. Besides, the “microtubule polymerization-depolymerization” value with tubulin (listed as 2) is “does not affect the tubulin-microtubule equilibria”; in the series on tubulin (listed as taxol-2'-MPT (2)), “very similar to GTP-saline controls and drastically different from taxol”. Further, in the series on tubulin (buffered aqueous environment), the “binding to tubulin in the manner of taxol” value is on record as “does not appear to bind to tubulin in the manner of taxol”. Further, the “control of tumor growth compared with taxol” value in [6] is on record as “at least comparable to that of taxol”. Further, the “reaction with serum protein” value in the series on serum protein is “observed to displace its MPT group and form a protein:taxol intermediate”. The “effectiveness in displacing the MPT group” value in the series with immunoglobulins and in the series on serum albumen was “particularly effective” each time. Also, the “activity in displacing the MPT group” value with non-serum proteins is recorded as “seemed to lack this activity”. For the same molecule, the cytotoxicity level entry in the series on human leukemia [7], with metastatic melanoma [8] and in the series on cervical carcinoma [9] was “Extremely high” in each case.

Consider `CC(=O)O[C@H]1C(=O)[C@@]2(C)[C@H]([C@H](OC(=O)c3ccccc3)[C@]3(O)C[C@H](OC(=O)[C@H](O)[C@@H](NC(=O)c4ccccc4)c4ccccc4)C(C)=C1C3(C)C)[C@]1(OC(C)=O)CO[C@@H]1C[C@@H]2O` [taxol], for which, in [1], the “Partition Coefficient [octanol]/[water]” value is listed as over 10000. In addition, in series [1] (water), the “Solubility in Water” value was under 1.5 µM. In the series with tubulin, the “suppression of calcium chloride promoted depolymerization” value is reported as “suppressed by taxol”. The “microtubule stabilization by taxol recovered from plasma treated with 2” value in the series with tubulin (taxol recovered from human plasma treated with 2) is recorded as “exhibited the expected microtubule stabilization”. Further, the water solubility entry in series [10] was “less than 1.5×10^-6 M”. The “side effects of formulation” value in series [11] was “hypersensitivity reactions”. Moreover, the cytotoxicity level result in the series on human leukemia [12], in the series on cervical carcinoma [13] and in the series with metastatic melanoma [14] was “Extremely high” in each case.
